Experimental data published in patent US9856225B2, “Substituted phenazines as antimicrobial agents” (University of Florida Research Foundation, Incorporated, priority 2013, dated 2018).
Values after ≈ are worked out from the molar mass of the structure shown. Values joined by “and” are separate entries in the source; they are usually repeats but may differ in a detail not shown here. Equal values may be shown once. Read-outs that look alike come from different tables or passages of the source. Marks after values point to notes of the source that are not given here.

Tests used:
S. aureus ATCC 29213 = test: MIC against S. aureus ATCC 29213; assay type: cell-based; settings: Staphylococcus aureus, ATCC29213
Description: (§1) Vancomycin's activity against MRSA-2. Vancomycin was also evaluated against MRSA-2 since vancomycin has been considered to be the drug of last resort against MRSA infections.

MRSA-2 biofilms = test: Biofilm eradication assay (MBEC); assay type: cell-based, Staphylococcus aureus; settings: for Biofilm Eradication MBEC: MRSA-2
Description: Biofilm eradication assays. […] The protocol for the biofilm eradication assays was essentially the same as the protocols reported in Eun et al., J. Am. Chem. Soc., 2012, 134, 11322 and Ceri et al., J. Clin. Microbiol., 1999, 37, 1771. Biofilm eradication assays were essentially biofilm dispersion assays with the addition of a final treatment with fresh media (and incubation at 37° C. for 24 hours) instead of crystal violet staining. This final incubation allowed viable cells within the biofilm to grow. At the end of this final incubation in biofilm eradication assays, microtiter wells void of turbidity represented eradicated biofilms, and the lowest concentration at which no visible growth was observed was referred to as the minimum biofilm eradication concentration (MBEC). Potent biofilm eradicating small molecules are extremely rare (Fletcher et al., Tetrahedron, 2014, 70, 6373; Jennings et al., ChemBioChem, 2014, 15, 2211). For these experiments, MRSA-2 was selected as the model since MRSA-2 is a multidrug-resistant, biofilm-forming clinical isolate of Staphylococcus aureus (Priyaja et al., Cytotechnol., 2014, doi: 10.1007/s10616-014-9765-5).

MRSA-2 = test: MIC against MRSA-2; assay type: cell-based; settings: Staphylococcus aureus, read-out: MIC against MRSA-2
Description: Antibiotic Susceptibility Tests (MIC Assay Protocol). The minimum inhibitory concentration (MIC) for each compound described herein was determined by the broth microdilution method as recommended by the Clinical and Laboratory Standards Institute (CLSI) (Clinical and Laboratory Standards Institute. 2009. Methods for dilution antimicrobial susceptibility tests for bacteria that grow aerobically; approved standard, eighth edition (M7-A8)). In a 96-well plate, eleven two-fold serial dilutions of each compound were made in a final volume of 100 μL Luria Broth (one column served as a blank; see the MIC assay described herein). Each well was inoculated with 10^5 bacterial cells at the initial time of incubation, prepared from a fresh log phase culture (OD600 of 0.5). […] The concentration range tested for each compound during this study was 0.10 to 100 μM. DMSO served as the vehicle and negative control in each microdilution MIC assay. DMSO was serially diluted at the same concentration as the compounds with a top concentration of 1% v/v. Bacterial strains used: Staphylococcus aureus (ATCC 25923), Staphylococcus epidermidis (ATCC 12228) and Pseudomonas aeruginosa (PAO1). […]
as §1

[1] = system: Staphylococcus aureus (ATCC 25923); test: MIC broth microdilution (CLSI), Luria Broth; assay type: cell-based; settings: Staphylococcus aureus, ATCC25923, Table 1, ATCC 25923, read-out: Staphylococcus aureus MIC
Description: (§2) Antibiotic Susceptibility Tests (MIC Assay Protocol). The minimum inhibitory concentration (MIC) for each compound described herein was determined by the broth microdilution method as recommended by the Clinical and Laboratory Standards Institute (CLSI) (Clinical and Laboratory Standards Institute. 2009. Methods for dilution antimicrobial susceptibility tests for bacteria that grow aerobically; approved standard, eighth edition (M7-A8)). In a 96-well plate, eleven two-fold serial dilutions of each compound were made in a final volume of 100 μL Luria Broth (one column served as a blank; see the MIC assay described herein). Each well was inoculated with 10^5 bacterial cells at the initial time of incubation, prepared from a fresh log phase culture (OD600 of 0.5). […] The concentration range tested for each compound during this study was 0.10 to 100 μM. DMSO served as the vehicle and negative control in each microdilution MIC assay. DMSO was serially diluted at the same concentration as the compounds with a top concentration of 1% v/v. Bacterial strains used: Staphylococcus aureus (ATCC 25923), Staphylococcus epidermidis (ATCC 12228) and Pseudomonas aeruginosa (PAO1). Kanamycin was used as a positive control against Staphylococcus aureus and Staphylococcus epidermidis.

[2] = system: Pseudomonas aeruginosa (PAO1); test: MIC broth microdilution (CLSI), Luria Broth; assay type: cell-based; settings: Table 1, PAO1, read-out: Pseudomonas aeruginosa MIC
Description: as §2

[3] = system: Staphylococcus epidermidis (ATCC 12228); test: MIC broth microdilution (CLSI), Luria Broth; assay type: cell-based; settings: ATCC12228, Table 1, ATCC 12228, read-out: Staphylococcus epidermidis MIC
Description: as §2

Solubility observation = assay type: physicochemical
Description: 6,9-Dibromophenazine-1-carboxylic acid (18) and methyl-6,9-dibromophenazine-1-carboxylate (35). 2-((2,5-Dibromophenyl)amino)-3-nitrobenzoic acid (497 mg, 1.16 mmol) was dissolved in 19 mL 2 N aqueous sodium hydroxide and treated with sodium borohydride (131 mg, 3.47 mmol). The resulting reaction mixture was then refluxed for 1.5 hours. After this time, the reaction was made acidic with 2 N aqueous hydrochloric acid, and the resulting precipitate was filtered. The filter cake was then washed with hot chloroform to afford 143 mg (32% yield) of 6,9-dibromophenazine-1-carboxylic acid 18 as a yellow-green solid. […] A small portion of this material was converted to methyl ester 35 for characterization purposes using the following procedure. To a stirred suspension of 6,9-dibromophenazine-1-carboxylic acid (3.7 mg, 0.0097 mmol) in 0.4 mL dimethylformamide was sequentially added potassium carbonate (22 mg, 0.16 mmol) and one drop of iodomethane. The reaction was allowed to stir overnight at room temperature. The reaction was then transferred to a separatory funnel and partitioned between ethyl acetate and water. The organic layer was then washed with brine and collected. […] The crude material was taken up in chloroform and passed over a silica plug to furnish 3.8 mg (quantitative yield) of methyl-6,9-dibromophenazine-1-carboxylate 35 as a yellow solid.

[4] = Stability of DMSO stock solutions; assay type: physicochemical
Description: Compound storage. Solid stocks of the compounds described herein were stored at −80° C. in vials sealed with PARAFILM. Between 2.0 and 4.5 milligrams of each compound was weighed out, and a 10 mM DMSO stock solution of each compound were prepared. DMSO stock solutions were stored at room temperature in the dark (e.g., wrapped in aluminum foil). At this concentration, a few compounds required gentle heating to completely solubilize. DMSO stock solutions were not subjected to any freeze-thaw cycles to prevent compound breakdown. The compounds were stable in DMSO for several weeks under these mild storage conditions, with the exception of pyocyanin. Pyocyanin is unstable in DMSO at room temperature after one day. […] DMSO stock solutions of about 2 milligrams of pyocyanin were made fresh each day. The hydrolysis stability of select compounds was also tested, e.g., by subjecting these compounds to conditions mimicking the biofilm assays described herein. In one set of exemplary experiments, 3.2 to 4.5 mgs of each of compounds 18a, 12a, 23a, and 21 were treated with 1 mL of sterile water to form a mixture. […] After 24 hours, each of the mixtures was extracted with dichloromethane and evaluated, using TLC and NMR, for hydrolysis of each of compounds 18a, 12a, 23a, and 21 to compound 11.

## CN[C@H](CC(C)C)C(=O)N[C@H]1C(=O)N[C@@H](CC(N)=O)C(=O)N[C@H]2C(=O)N[C@H]3C(=O)N[C@H](C(=O)N[C@H](C(=O)O)c4cc(O)cc(O)c4-c4cc3ccc4O)[C@H](O)c3ccc(c(Cl)c3)Oc3cc2cc(c3O[C@@H]2O[C@H](CO)[C@@H](O)[C@H](O)[C@H]2O[C@H]2C[C@](C)(N)[C@H](O)[C@H](C)O2)Oc2ccc(cc2Cl)[C@H]1O [Vancomycin, reference compound]
S. aureus ATCC 29213
  MIC: 0.39 to 0.78 µM (≈ 0.565 to 1.13 µg/mL)
MRSA-2 biofilms
  Biofilm Eradication MBEC: >2,000^d μM
MRSA-2 biofilms; listed as vancomycin
  Biofilm Eradication MBEC: > 2,000 μM
MRSA-2 biofilms; MRSA-2 biofilm vs planktonic
  MBEC:MIC ratio: > 2,564
MRSA-2
  MIC: 0.78 µM (≈ 1.13 µg/mL)

## COc1cc2nc3c(C(=O)O)cccc3nc2c(OC)c1OC [Compound 12, 6,7,8-Trimethoxyphenazine-1-carboxylic acid]
[1]; range tested 0.10 to 100 μM
  MIC: > 100 µM
[1]
  MIC: > 31.5 µg/mL
[2]
  MIC: > 100 µM
[3]
  MIC: > 100 µM and > 31.5 µg/mL

## O=C(O)c1cccc2nc3c(Br)ccc(Br)c3nc12 [Compound 18, 6,9-Dibromophenazine-1-carboxylic acid]
[1]; range tested 0.10 to 100 μM
  MIC: > 100 µM
[1]
  MIC: > 38.3 µg/mL
[2]
  MIC: > 100 µM
Solubility observation
  solubility (in words): extremely low solubility

## Nc1cccc2nc3ccccc3nc12 [Compound 6, Phenazin-1-amine]
[1]; range tested 0.10 to 100 μM
  MIC: > 100 µM
[1]
  MIC: > 19.6 µg/mL
[2]
  MIC: > 100 µM
[3]
  MIC: > 100 µM and > 19.6 µg/mL

## Cn1c2cccc(=O)c-2nc2ccccc21 [Compound 1, Pyocyanin, reference compound]
[4]; 10 mM DMSO stock, room temperature, dark
  stability in DMSO: unstable
[4]; after 8 hours at room temperature
  decomposition in d6-DMSO (NMR): significant decomposition
[1]; range tested 0.10 to 100 μM
  MIC: 50 µM
[1]
  MIC: 10.6 µg/mL
[2]
  MIC: > 100 µM
[3]
  MIC: 50 µM and 10.6 µg/mL

## COc1ccc2nc3c(C(=O)O)cccc3nc2c1 [Compound 8, 7-Methoxyphenazine-1-carboxylic acid]
[1]; range tested 0.10 to 100 μM
  MIC: > 100 µM
[1]
  MIC: > 25.5 µg/mL
[2]
  MIC: > 100 µM
[3]
  MIC: > 100 µM and > 25.5 µg/mL
